The text below walks through data of patent US20090327175A1, “PHARMACOKINETIC MODELING OF MYCOPHENOLIC ACID” (priority 2006, published 2009).

Molecules are shown by their SMILES. Read-outs that look alike come from different tables or passages of the source.

Data set [1] is described as follows: 12 h plasma concentration/time profiles from six clinical studies of transplant patients receiving enteric coated mycophenolate salt (Myfortic). It counts as in vivo, human. Conditions: for AUC(0-t): human, plasma, oral, enteric coated mycophenolate salt (Myfortic), read-out: MPA AUC0-12, mean and SD, measured. Here is the method:
334, 12 h plasma concentration/time profiles (217 for de novo and 117 for stable patients) are available from six clinical studies of transplant patients receiving enteric coated composition containing mycophenolate salt (Myfortic®) as part of their immunosuppressive drug regimen. Using 20 randomly selected profiles, population PK models (two-compartment for stable patients and a one-compartment for de novo patients) are developed using a Bayesian approach (i.e. approach to statistics in which estimates are based on a synthesis of a prior distribution and current sample data) to estimate the model parameters. The remaining profiles are used to test and validate the models.

The conditions of data set [2]: immediately post-transplantation; cited from earlier work.

Regarding `COc1c(C)c2c(c(O)c1C/C=C(\C)CCC(=O)O)C(=O)OC2` [MPA, mycophenolic acid], in data set [1] (fixed dose of 720 mg bid, during the two weeks after transplantation), the “share of de novo patients below lower end of target range for MPA AUC0-12 (30 mg/L·h)” value was 50%. Moreover, the AUC(0-t) in data set [1] (720 mg bid, de novo patients transplanted within the previous two weeks) worked out at 32200 ± 17500 ng·h/mL; in data set [1] (stable patients), 65100 ± 26000 ng·h/mL. For the same compound, the “optimal target MPA AUC0-12 suggested by previous controlled studies” value in data set [2] was approximately 45000 ng·h/mL.
